Source: patent publication US20250154165A1, “MULTIANTENNARY GLYCOLIPID MIMETICS” (CONSEJO SUPERIOR DE INVESTIGACIONES CIENTÍFICAS (CSIC), priority 2021, published 2025)

Key:
STAT3 = test: Signal transduction by multiplex bead array: STAT3 phosphorylation; format: cell-based; details: comparing to LPS treatment alone (FIG. 4)
Excerpt: (§1) FIG. 4. […] Compound 12, a representative compound of the invention, was examined in term of signal transduction to explore how the new compounds exert their suppressive effect, using the multiplex bead array.
(§2) Using the multiplex bead array, we examined how the new compounds might exert their suppressive effect in term of signal transduction.

JNK = test: Signal transduction by multiplex bead array: JNK phosphorylation; format: cell-based; details: comparing to LPS treatment alone (FIG. 4)
Excerpt: as §1, §2

ERK = test: Signal transduction by multiplex bead array: ERK phosphorylation; format: cell-based; details: comparing to LPS treatment alone (FIG. 4)
Excerpt: as §1, §2

p38 = test: Signal transduction by multiplex bead array: p38 phosphorylation; format: cell-based; details: comparing to LPS treatment alone (FIG. 4)
Excerpt: as §1, §2

[1] = test system: Splenocytes treated with LPS; test: Suppression of LPS-induced inflammation (splenocytes in vitro); format: cell-based, mouse; details: splenocytes treated concurrently with compound and LPS (FIG. 1)
Procedure: FIG. 1. […] Splenocytes were treated concurrently with the compounds of the invention and LPS to assess the suppressive function of compounds on LPS-induced inflammation, with several compounds showing prominent suppressive function.
(§3) The whole spleen was surgically removed from a mouse and mechanically dissociated into a single cell suspension of splenocytes, which were then cultured in the complete RPMI 1640 medium (cRPMI). Human peripheral blood mononuclear cells (PBMCs) from healthy volunteers were collected from whole blood through gradient-centrifugation with Histopaque-1077 (Sigma-Aldrich).
Splenocytes were treated concurrently with the compounds of the invention and LPS to assess the suppressive function of compounds on LPS-induced inflammation.

[2] = test system: OVA-induced AHR mouse model; test: Suppression of OVA-induced airway hyperreactivity (AHR) in vivo; details: OVA-induced AHR mouse model (FIG. 7)
Procedure: FIG. 7. […] The capability of selected compounds 8, 12, 18, and 27 in suppressing Th2 inflammation in vivo was assessed using the OAV-induced AHR mouse model.
For ovalbumin (OVA) challenge, mice were sensitized intraperitoneally (i.p.) with 50 μg of OVA with 2% alhydrogel adjuvant (InvivoGen). Mice were challenged three times with 50 μg of OVA on day 7 post-sensitization, either daily or every other day. Mice were sacrificed the day after the last OVA challenge. The scheme of the OT-1 adoptive transfer mouse model for examining the proliferation of CD8^+ T cells in adjuvanting OVA challenge is described in FIG. 13.
Mice were anesthetized with 100 mg per kg body weight pentobarbital (Sigma-Aldrich), tracheotomised and mechanically ventilated via the FinePointe RC system (Buxco Research Systems, Wilmington, NC). Lung function was assessed by measuring lung resistance and dynamic compliance in response to increasing doses of aerosolized methacholine (1.25-40 mg/mL, Sigma-Aldrich).
Using the Th2 OVA-induced AHR mouse model, we assessed the capability of selected compounds 8, 12, 18, and 27 in suppressing Th2 inflammation.

[3] = test system: bone marrow-derived dendritic cells (BMDC) from MyD88 KO mice; test: MyD88 dependency of IL-12p40 production (BMDCs in vitro); format: cell-based; details: BMDC from MyD88 KO mice compared with BMDC from wild-type mice; dose-dependent (FIG. 15)
Excerpt: FIG. 15. […] The effect was dose-dependent, and the difference became more pronounced at a higher concentration.
To determine whether the adjuvancy function of the representative compound 12 is MyD88-dependent or not, we performed experiments with immune cells isolated from MyD88 knocked-out (KO) mice. […] Data are dose-dependent and differences become more pronounced at the higher concentrations. […] Taken together, the results support that compound 12 adjuvancy function is MyD88-dependent.

B6 mice = test: Adjuvancy function in vivo (serum IFNγ and IL-4 after injection)
Procedure: FIG. 11. […] The adjuvancy capability of the selected compounds 8, 12, 18, 27, and 29 in vivo was assessed by measuring the serum level of IFNγ and IL-4 induced after injecting them into B6 mice.
Besides assessing the ability of the new compounds to suppress inflammation, we also looked into their function to act as adjuvants, i.e. their ability to promote desirable immunological trends in the development of vaccines. We measured the in vivo adjuvancy capability of selected compounds 8, 12, 18, 27, and 29 in inducing IFNγ and IL-4 in B6 mice (FIG. 11).

[4] = test system: Splenocytes treated with αGalCer; test: Suppression of αGalCer-induced inflammation (splenocytes in vitro); format: cell-based, mouse; details: splenocytes treated concurrently with compound and αGalCer (FIG. 5)
Procedure: FIG. 5. […] Splenocytes were treated concurrently with the compounds of the invention and αGalCer to assess the suppressive function of compounds on αGalCer-induced inflammation, with several compounds showing prominent suppressive function.
as §3
Splenocytes were treated concurrently with the compounds of the invention and αGalCer to assess their ability to suppress αGalCer-induced inflammation.

[5] = 2 hours after injection (FIG. 11)
[6] = 18 hours after injection (FIG. 11)

SMILES: CCCCCCCCCCCCNC(=O)C(COC1C(O)C(O)C(O)C2COC(=O)N21)NC(=O)CCCCCCCCCCC (stereo not drawn) [Compound 12]
- phosphorylation of STAT3 (STAT3): significant reduction of phosphorylation
- phosphorylation of JNK (JNK): not JNK
- phosphorylation of ERK (ERK): significantly reduced
- phosphorylation of p38 (p38): significantly reduced
- suppressive function on LPS-induced inflammation [1]: prominent inflammation-suppressing function
- suppression of airway hyperreactivity (AHR) [2]: can suppress AHR onset
- IL-12p40 production in response to compound [3]: severely curtailed
- serum level of IFNγ induced (B6 mice; [5]): significant capability in inducing
- serum level of IL-4 induced (B6 mice; [5]): significant capability in inducing
- serum level of IFNγ induced (B6 mice; [6]): significant detectable level
- serum level of IL-4 induced (B6 mice; [6]): significant detectable level
- suppressive function on αGalCer-induced inflammation [4]: prominent inflammation-suppressing function
